Data published in US20210122730A1, “GLUCOCORTICOID RECEPTOR MODULATORS” (ORIC Pharmaceuticals, Inc., priority 2017, published 2021).

Target: T1, GR (Homo sapiens, UniProt P04150)
T1 construct: expressed in transfected cells; host or cells: CHO-K1
T1 sequence (P04150 1-777): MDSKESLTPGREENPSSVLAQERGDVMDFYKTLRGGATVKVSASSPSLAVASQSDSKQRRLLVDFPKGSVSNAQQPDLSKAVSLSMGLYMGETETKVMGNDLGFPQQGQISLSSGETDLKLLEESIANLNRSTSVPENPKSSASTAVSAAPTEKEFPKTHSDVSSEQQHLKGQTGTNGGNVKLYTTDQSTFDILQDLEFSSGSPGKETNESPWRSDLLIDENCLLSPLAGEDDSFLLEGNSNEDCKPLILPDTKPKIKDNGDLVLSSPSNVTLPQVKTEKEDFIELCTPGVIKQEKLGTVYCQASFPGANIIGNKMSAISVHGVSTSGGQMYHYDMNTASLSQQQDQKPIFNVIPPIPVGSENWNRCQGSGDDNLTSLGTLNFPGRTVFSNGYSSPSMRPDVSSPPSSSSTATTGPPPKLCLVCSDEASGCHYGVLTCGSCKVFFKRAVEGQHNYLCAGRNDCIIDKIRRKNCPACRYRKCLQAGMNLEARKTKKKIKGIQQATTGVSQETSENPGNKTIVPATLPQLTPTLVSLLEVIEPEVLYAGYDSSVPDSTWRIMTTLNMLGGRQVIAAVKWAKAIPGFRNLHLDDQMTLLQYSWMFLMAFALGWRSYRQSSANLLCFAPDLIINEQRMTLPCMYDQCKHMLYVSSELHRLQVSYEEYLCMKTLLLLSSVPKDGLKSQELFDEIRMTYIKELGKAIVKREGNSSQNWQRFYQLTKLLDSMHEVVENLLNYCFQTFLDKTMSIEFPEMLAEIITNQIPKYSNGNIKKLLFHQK
Assay: In Vitro GR Luciferase Reporter Assay (antagonist mode, CHO-K1-GR-MMTV-Luc reporter cells)
Assay type: cell-based
Conditions: antagonist mode, 10 nM Dexamethasone
Summary of the method: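 CHO-K1-GR-MMTV-Luc cells in phenol red-free DMEM with 10% CSS, stimulated with 10 nM dexamethasone (final) and treated with 8-point 1:5 compound dilutions for about 18-24 h at 37° C. Luciferase measured by OneGlo luminescence; IC50 derived for inhibition of GR activity.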

| IC50 | SMILES |
| --- | --- |
| ≤ 100 nM | Cn1ccc(S(=O)(=O)CC2CCC3=Cc4c(cnn4-c4ccc(F)cc4)C[C@]3(C(=O)c3ccc(C(F)(F)F)cn3)C2)n1 (stereo partly drawn) [Example 360, ((4aR)-1-(4-fluorophenyl)-6-(((1-methyl-1H-pyrazol-3-yl)sulfonyl)methyl)-1,4,5,6,7,8-hexahydro-4aH-benzo[f]indazol-4a-yl)(5-(trifluoromethyl)pyridin-2-yl)methanone] |
| ≤ 100 nM | Cn1ccc(S(=O)(=O)CC2CCC3=Cc4c(cnn4-c4ccc(F)cc4)C[C@]3(C(=O)c3ncc(C(F)(F)F)s3)C2)n1 (stereo partly drawn) [Example 361, ((4aR)-1-(4-fluorophenyl)-6-(((1-methyl-1H-pyrazol-3-yl)sulfonyl)methyl)-1,4,5,6,7,8-hexahydro-4aH-benzo[f]indazol-4a-yl)(5-(trifluoromethyl)thiazol-2-yl)methanone] |
| ≤ 100 nM | Cn1ccc(S(=O)(=O)CC2CCC3=Cc4c(cnn4-c4ccc(F)cc4)C[C@]3(C(=O)c3cc(F)ccn3)C2)n1 (stereo partly drawn) [Example 362, ((4aR)-1-(4-fluorophenyl)-6-(((1-methyl-1H-pyrazol-3-yl)sulfonyl)methyl)-1,4,5,6,7,8-hexahydro-4aH-benzo[f]indazol-4a-yl)(4-fluoropyridin-2-yl)methanone] |
| ≤ 100 nM | Cn1ccc(S(=O)(=O)CC2CCC3=Cc4c(cnn4-c4ccc(F)cc4)C[C@]3(C(=O)c3cc(Cl)ccn3)C2)n1 (stereo partly drawn) [Example 364, (4-chloropyridin-2-yl)((4aR)-1-(4-fluorophenyl)-6-(((1-methyl-1H-pyrazol-3-yl)sulfonyl)methyl)-1,4,5,6,7,8-hexahydro-4aH-benzo[f]indazol-4a-yl)methanone] |
| ≤ 100 nM | Cn1cnc(S(=O)(=O)[C@H]2CCC3=Cc4c(cnn4-c4ccc(F)cc4)C[C@]3(C(=O)c3cc(C(F)(F)F)ccn3)C2)n1 [Example 365, ((4aS,6S)-1-(4-fluorophenyl)-6-((1-methyl-1H-1,2,4-triazol-3-yl)sulfonyl)-1,4,5,6,7,8-hexahydro-4aH-benzo[f]indazol-4a-yl)(4-(trifluoromethyl)pyridin-2-yl)methanone] |
| ≤ 100 nM | Cn1ccc(S(=O)(=O)N([C@H]2CCC3=Cc4c(cnn4-c4ccc(F)cc4)C[C@]3(C(=O)c3cc(C(F)(F)F)ccn3)C2)[C@H]2C[C@@](O)(C(F)(F)F)C2)n1 [Example 369, N-((4aS,6S)-1-(4-fluorophenyl)-4a-(4-(trifluoromethyl)picolinoyl)-4,4a,5,6,7,8-hexahydro-1H-benzo[f]indazol-6-yl)-N-((1r,3S)-3-hydroxy-3-(trifluoromethyl)cyclobutyl)-1-methyl-1H-pyrazole-3-sulfonamide] |
| ≤ 100 nM | O=C(c1cc(Cl)ccn1)[C@]12Cc3cnn(-c4ccc(F)cc4)c3C=C1CC[C@H](N(C1CC(F)(F)C1)S(=O)(=O)c1ccc(Cl)nc1)C2 [Example 370, 6-chloro-N-((4aS,6S)-4a-(4-chloropicolinoyl)-1-(4-fluorophenyl)-4,4a,5,6,7,8-hexahydro-1H-benzo[f]indazol-6-yl)-N-(3,3-difluorocyclobutyl)pyridine-3-sulfonamide] |
| ≤ 100 nM | COCCN([C@H]1CCC2=Cc3c(cnn3-c3ccc(F)cc3)C[C@]2(C(=O)c2ncc(C(F)(F)F)s2)C1)S(=O)(=O)c1ccc(F)cc1 [Example 372, 4-fluoro-N-((4aS,6S)-1-(4-fluorophenyl)-4a-(5-(trifluoromethyl)thiazole-2-carbonyl)-4,4a,5,6,7,8-hexahydro-1H-benzo[f]indazol-6-yl)-N-(2-methoxyethyl)benzenesulfon-amide] |
| ≤ 100 nM | Cn1cc(S(=O)(=O)CC2CCC3=Cc4c(cnn4-c4ccc(F)cc4)C[C@]3(C(=O)c3ncc(C(F)(F)F)s3)C2)cn1 (stereo partly drawn) [Example 375, ((4aR)-1-(4-fluorophenyl)-6-(((1-methyl-1H-pyrazol-4-yl)sulfonyl)methyl)-1,4,5,6,7,8-hexahydro-4aH-benzo[f]indazol-4a-yl)(5-(trifluoromethyl)thiazol-2-yl)methanone] |
